Marks after values point to notes of the source that are not given here.
Columns and labels:
New-Zealand rabbits = experiment: Intra-articular biocompatibility test in rabbit; type: in vivo
Experimental: Twelve male New-Zealand rabbits are kept in individual cages 2 weeks after reception before injection. The day of injection, they are anesthetized with Ketamin©/Domitor©, their posterior articulations shaved and disinfected with Vetedine© soap and solution. 200 ul of the selected formulations are injected into the articulations. The rabbit is then revived with Atipam©. The formulations are randomized for rabbits as well as for articulations and injected blindly.
Twice a week, a clinical examination is performed comprising the following points. For the general state; vigilance (at distance from the cage: normal, diminished, sleepy, enhanced), movements (at distance from the cage: normal, diminished), limb ledge (at distance from the cage: yes, no), limp (at distance from the cage: yes, no), hair state: (smooth and shiny, dull, bristling, dirty zones, hairless zones), wound: (yes, no), abnormal secretion: (yes, no), mucosal color: (pink, blade, congested, cyanosed). For the injected joints; swelling (from 0 to 3, 3 being strongest swelling), flow at the injection site (0-3), heat (0-3), palpation pain (from 0 to 3), mobilization pain (0-3), redness (0-3), hematoma (0-3). An echography is also performed under anesthesia comprising the following […] (external lateral, internal lateral and proximal) according to a protocol published in the literature and provides information about the presence of liquid, osteophytes and any severe cartilage erosion. After one month observation, the rabbits are sacrificed with intra-muscular injection of Ketamin©/Domitor© and intra-cardiac Dolethal©. The articulations are dissected and photographed before and after china ink embodiment to assess the state of the rotula, condyl, tibia and trochlea cartilage by a visual analogue scale (VAS) expressed in percentage of the structure degraded and by osteophytis scoring (OS) giving the presence or absence of osteophytes (0: absent, 1: present).
The femoral and tibial parts are fixed in 10% formalin solution and decalcified with Kristenson solution from Chimie-Plus Laboratoire (Denice, France) during several weeks. Samples are cut in two parasagittal sections for medial femoral and tibial condyles (left and right) and then paraffin embedded and sectioned into 4 μm thick slices. Sections were stained with Safranin O-fast green for cartilage. Synovial membranes were fixed in 10% formalin solution, cut in two or three parallel sections, paraffin embedded and sectioned into 4 μm thick slices. Each paraffin block was sectioned in three slides [one stained with hematoxylin, eosin and saffron (HES), and two stained with hematoxylin and eosin (HE)]. Histological features were evaluated in a blinded fashion except for control rabbits. Histological lesions were evaluated and scored according the OARSI histopathology initiative; -recommendations for histological assessments of osteoarthritis in the rabbit (Osteoarthritis and cartilage 18 (2010) S53-S65). Microscopic scoring of cartilage alterations, two sections per condyle were evaluated allowing a semi-quantitative grading. Several parameters were evaluated: Safranin O-fast green staining, structure, chondrocytes density, cluster formation. For microscopic scoring of synovial alterations, three sections per synovial membrane were evaluated, allowing semi-quantitative grading. Several parameters were evaluated: synoviocytes proliferation, synoviocytes hypertrophy, granulocytic infiltration, lymphoplasmacytic infiltration, lymphoplasmacytic aggregates follicles, villous hyperplasia, proliferation of fibroblasts/fibrocytes, proliferation of blood vessels, cartilage/bone detritus presence and hemosiderosis.
The above mentioned formulations were tested in term of intra-articular biocompatibility in the rabbit model; Conjugated HA linked to 4AR (n=4), unconjugated HA mixed with 4AR (n=4), 4AR (n=4) and as controls; physiological serum (n=2), untreated (n=2) and Ostenil© (n=4).

[1] = Viscosity and pH of formulations after steam sterilization; type: physicochemical; conditions: formulation after steam sterilization
Experimental: The gel is steam sterilized 10 minutes at 121° C. with an entire cycle of 35 minutes. For the viscosity, gels are measured with the rheological program presented before.
The target characteristics are a viscosity after heat sterilization of around 1000 [mPas], neutrality and isotonicity to plasma (around 280 [mOsmol]) in common with state of the art commercial formulations such as Ostenil©.

[2] = reference [22]; cited from earlier work
[3] = Viscosity stability in an oxidative environment (Weissberger's oxidative system, CuCl2 + ascorbic acid); conditions: gel 1 %
[4] = Antioxidant activity measurement (DPPH); type: biochemical; conditions: DPPH % after 60 minutes; for DPPH for moiety alone [%] ± SD, n = 3: free moiety, lower = more antioxidant
[5] = Water solubility of the moieties; type: physicochemical; conditions: free moiety
[6] = HA conjugate (native HA), for 4AR first value, 14 % grafting

SMILES: Nc1ccc(O)cc1O [4AR, 4-aminoresorcinol]
- Tibia OS (New-Zealand rabbits; 0 absent, 1 present, one month): 0%
- Trochlea OS (New-Zealand rabbits; 0 absent, 1 present, one month): 0%
- Rotula OS (New-Zealand rabbits; 0 absent, 1 small osteophyte present, one month): 0%
- Condyl OS, ext (New-Zealand rabbits; external, 0 absent, 1 present, one month): 0/0%
- Condyl VAS score, ext (New-Zealand rabbits; external, one month): 0/0%
- Tibia VAS score, ext (New-Zealand rabbits; external, one month): 0***/0*** %
- Condyl OS, int (New-Zealand rabbits; internal, 0 absent, 1 present, one month): 0/0%
- Condyl VAS score, int (New-Zealand rabbits; internal, one month): 0/0%
- Tibia VAS score, int (New-Zealand rabbits; internal, one month): 0***/0*** %
- Meniscus lesion (int/ext) (New-Zealand rabbits; one month): 0
- Synvovial membrane Fibrosis (New-Zealand rabbits; one month): 0
- Synvovial membrane Inflamation (New-Zealand rabbits; one month): 0
- Trochlea VAS score (New-Zealand rabbits; one month): 0-10* %
- Rotula VAS score (New-Zealand rabbits; percentage of structure degraded, one month after 200 ul intra-articular): 0%
- intra-articular biocompatibility (in words) (New-Zealand rabbits; single injection, one month evaluation): no sign of non-biocompatibility
- pH [1]: 7.25
- cytotoxicity (in words) [2]: potent cytotoxic agent
- gain of viscosity ([3]; during the 36 minutes of measurement, Weissberger oxidative system, n=1): 40%
- DPPH [%] ± SD, n = 3 ([4]; 4AR conjugate with 57 % grafting (second value of the cell)): 37%
- DPPH [%] ± SD, n = 3 [4, 6]: 71%
- DPPH for moiety alone [%] ± SD, n = 3 [4]: 28%

SMILES: Nc1ccc(C(=O)O)c(O)c1 [4ASA, 4-aminosalicylic acid]
- water solubility (in words) [5]: low water solubility
- DPPH [%] ± SD, n = 3 [4, 6]: 96%
- DPPH for moiety alone [%] ± SD, n = 3 [4]: 27%

SMILES: Nc1ccc(O)c(C(=O)O)c1 [5ASA, 5-aminosalicylic acid]
- DPPH [%] ± SD, n = 3 [4, 6]: 67%
- DPPH for moiety alone [%] ± SD, n = 3 [4]: 34%

SMILES: Cc1cc(=O)oc2cc(N)ccc12 [AMC]
- water solubility (in words) [5]: solubility is low
- DPPH [%] ± SD, n = 3 [4, 6]: 61%
- DPPH for moiety alone [%] ± SD, n = 3 [4]: 87%

SMILES: Nc1ccccc1 [Aniline, aniline]
- water solubility (in words) [5]: high water solubility
- DPPH [%] ± SD, n = 3 [4, 6]: 95%
- DPPH for moiety alone [%] ± SD, n = 3 [4]: 36%

SMILES: CCOC(=O)[C@@H](N)CS [EECyst, ethylester cysteine]
- DPPH [%] ± SD, n = 3 [4, 6]: 41%
- DPPH for moiety alone [%] ± SD, n = 3 [4]: 6%

SMILES: NCCc1ccc(O)cc1 [Tyr, tyramin]
- viscosity behaviour / degradation in oxidative environment (in words) ([3]; CuCl2 + ascorbic acid): more degraded than HA itself
- DPPH [%] ± SD, n = 3 [4, 6]: 92%
- DPPH for moiety alone [%] ± SD, n = 3 [4]: 85%

— US20150306237A1, “HYALURONIC ACID-ANTIOXIDANT CONJUGATES AND THEIR USES” (priority 2012, published 2015)
